Measured values published in patent publication US20100021599A1, “PRESERVATIVE” (LANXESS DEUTSCHLAND GMBH, priority 2006, published 2010).
Like-named read-outs stand apart in the source and are kept apart here.

Tested on: Paecilomyces variotii
Conditions: single substance alone, fruit-component drink inoculated with conidia, incubated two weeks at 27° C.
Experimental: A drink which contains fruit components was admixed with various concentrations of citric acid and subsequently inoculated with conidia of the fungus Paecilomyces variotii. Subsequently, the inoculated drinks samples were treated with various DMDC concentrations and incubated for two weeks at 27° C.

Row | SMILES | MHC | MHC (listed as citric acid)
1 | COC(=O)OC(=O)OC [DMDC, dimethyl dicarbonate] | >250 ppm | –
2 | O=C(O)CC(O)(CC(=O)O)C(=O)O [Citric acid, citric acid] | >30 000 ppm | > 30 000 ppm
